biological target: T1, hQ23 (HEK-293 cell line stably transfected with one of the members of the KCNQ family) (Homo sapiens, UniProt O43525+O43526); assay: Thallium flux assay for KCNQ channel blockers (FLIPR, BTC dye); type: cell-based; conditions: hQ23 cells, thallium flux
T1 construct: expressed in transfected cells; host or cells: HEK-293, stably transfected
Summary of the method: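 HEK-293 cells stably expressing a KCNQ member, loaded with BTC-AM (2 μM) in chloride-free buffer, pH 7.3; compounds added at 1% DMSO, then Tl2SO4 stimulus on FLIPR (488/540 nm, 60 s). Minimal active concentration set at ≥4 SD above negative control; IC50 from 10-point 1:3 series, single-site logistic fit versus the positive-control blocker.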

T1 sequence (O43526 whole entry): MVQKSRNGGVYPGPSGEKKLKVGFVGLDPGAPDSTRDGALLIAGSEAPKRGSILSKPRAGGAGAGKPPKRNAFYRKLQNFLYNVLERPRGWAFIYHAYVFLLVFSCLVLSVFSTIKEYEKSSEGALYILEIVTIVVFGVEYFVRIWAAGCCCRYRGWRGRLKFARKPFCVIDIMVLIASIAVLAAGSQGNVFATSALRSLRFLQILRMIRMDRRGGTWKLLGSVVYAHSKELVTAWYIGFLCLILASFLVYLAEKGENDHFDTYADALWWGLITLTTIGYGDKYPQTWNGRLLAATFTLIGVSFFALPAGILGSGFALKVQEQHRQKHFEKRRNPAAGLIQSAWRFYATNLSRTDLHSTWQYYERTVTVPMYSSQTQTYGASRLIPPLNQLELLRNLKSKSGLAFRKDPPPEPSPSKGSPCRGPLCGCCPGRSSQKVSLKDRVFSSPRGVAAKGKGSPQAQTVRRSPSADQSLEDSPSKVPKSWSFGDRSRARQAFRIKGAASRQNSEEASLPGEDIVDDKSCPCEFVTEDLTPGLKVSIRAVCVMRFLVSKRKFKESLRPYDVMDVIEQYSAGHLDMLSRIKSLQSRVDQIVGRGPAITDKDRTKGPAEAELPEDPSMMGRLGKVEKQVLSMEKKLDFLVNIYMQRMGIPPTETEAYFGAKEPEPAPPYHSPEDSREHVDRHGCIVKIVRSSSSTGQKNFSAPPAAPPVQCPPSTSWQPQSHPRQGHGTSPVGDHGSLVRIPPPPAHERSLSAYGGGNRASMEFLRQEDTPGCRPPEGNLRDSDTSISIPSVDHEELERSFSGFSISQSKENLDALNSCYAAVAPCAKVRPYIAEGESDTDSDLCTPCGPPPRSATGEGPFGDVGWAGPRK
T1 sequence (O43525 whole entry): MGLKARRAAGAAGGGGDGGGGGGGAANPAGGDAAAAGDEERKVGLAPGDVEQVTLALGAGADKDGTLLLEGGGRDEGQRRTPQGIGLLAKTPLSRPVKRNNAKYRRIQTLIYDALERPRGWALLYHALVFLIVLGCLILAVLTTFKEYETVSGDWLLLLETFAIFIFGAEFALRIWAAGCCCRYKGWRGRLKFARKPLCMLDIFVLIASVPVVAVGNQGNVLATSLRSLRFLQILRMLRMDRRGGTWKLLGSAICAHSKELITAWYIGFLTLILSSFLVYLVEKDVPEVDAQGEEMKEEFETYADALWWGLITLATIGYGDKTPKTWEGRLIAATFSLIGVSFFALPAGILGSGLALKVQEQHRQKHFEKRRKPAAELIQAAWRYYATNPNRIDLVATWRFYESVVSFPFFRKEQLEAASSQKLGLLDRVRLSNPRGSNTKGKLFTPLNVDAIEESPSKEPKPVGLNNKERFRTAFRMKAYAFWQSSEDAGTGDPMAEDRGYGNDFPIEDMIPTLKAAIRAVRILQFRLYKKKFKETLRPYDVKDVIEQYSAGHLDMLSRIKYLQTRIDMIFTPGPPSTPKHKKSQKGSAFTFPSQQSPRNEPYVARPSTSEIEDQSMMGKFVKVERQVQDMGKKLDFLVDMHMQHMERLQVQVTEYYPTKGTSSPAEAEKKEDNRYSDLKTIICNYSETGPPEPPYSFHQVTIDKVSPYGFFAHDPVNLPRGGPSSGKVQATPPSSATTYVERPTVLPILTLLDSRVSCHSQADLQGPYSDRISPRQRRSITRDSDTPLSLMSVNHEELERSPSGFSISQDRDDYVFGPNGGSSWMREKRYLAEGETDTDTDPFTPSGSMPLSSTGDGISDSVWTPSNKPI

EC50 | SMILES
702 nM | CN(C(=O)c1cnc(NC2CCCC2)nc1C1(c2ccc(F)cc2)CCCC1)C1CCCCC1 [Example 209, 5-pyrimidinecarboxamide, N-cyclohexyl-2-(cyclopentylamino)-4-[1-(4-fluorophenyl)cyclopentyl]-N-methyl-]
375 nM | CC1CCC(Nc2ncc(C(=O)N3CCc4ccccc4C3)c(C3(c4ccc(F)cc4)CCCC3)n2)CC1 (centres unmarked) [Example 210, isoquinoline, 2-[[4-[1-(4-fluorophenyl)cyclopentyl]-2-[(4-methylcyclohexyl)amino]-5-pyrimidinyl]carbonyl]-1,2,3,4-tetrahydro-]
272 nM | CC1CCCN(c2ncc(C(=O)N3CCc4ccccc4C3)c(C3(c4ccc(F)cc4)CCCC3)n2)C1 (centres unmarked) [Example 211, isoquinoline, 2-[[4-[1-(4-fluorophenyl)cyclopentyl]-2-(3-methyl-1-piperidinyl)-5-pyrimidinyl]carbonyl]-1,2,3,4-tetrahydro-]
237 nM | CC1CCN(c2ncc(C(=O)N3CCc4ccccc4C3)c(C3(c4ccc(F)cc4)CCCC3)n2)CC1 [Example 212, isoquinoline, 2-[[4-[1-(4-fluorophenyl)cyclopentyl]-2-(4-methyl-1-piperidinyl)-5-pyrimidinyl]carbonyl]-1,2,3,4-tetrahydro-]
680 nM | CCN(C(=O)c1cnc(N2CCCC2)nc1C1(c2ccc(F)cc2)CCCC1)C1CCCCC1 [Example 213, 5-pyrimidinecarboxamide, N-cyclohexyl-N-ethyl-4-[1-(4-fluorophenyl)cyclopentyl]-2-(1-pyrrolidinyl)-]
575 nM | CCN(C(=O)c1cnc(N2CCCC(C)C2)nc1C1(c2ccc(F)cc2)CCCC1)C1CCCCC1 (centres unmarked) [Example 214, 5-pyrimidinecarboxamide, N-cyclohexyl-N-ethyl-4-[1-(4-fluorophenyl)cyclopentyl]-2-(3-methyl-1-piperidinyl)-]
922 nM | CCN(C(=O)c1cnc(N2CCC(C)CC2)nc1C1(c2ccc(F)cc2)CCCC1)C1CCCCC1 [Example 215, 5-pyrimidinecarboxamide, N-cyclohexyl-N-ethyl-4-[1-(4-fluorophenyl)cyclopentyl]-2-(4-methyl-1-piperidinyl)-]
821 nM | CCC(C)Nc1ncc(C(=O)N(CC)C2CCCCC2)c(C2(c3ccc(F)cc3)CCCC2)n1 (centres unmarked) [Example 216, 5-pyrimidinecarboxamide, N-cyclohexyl-N-ethyl-4-[1-(4-fluorophenyl)cyclopentyl]-2-[(1-methylpropyl)amino]-]
482 nM | CCN(C(=O)c1cnc(NC2CCCC2)nc1C1(c2ccc(F)cc2)CCCC1)C1CCCCC1 [Example 217, 5-pyrimidinecarboxamide, N-cyclohexyl-2-(cyclopentylamino)-N-ethyl-4-[1-(4-fluorophenyl)cyclopentyl]-]
866 nM | CC1CCN(c2ncc(C(=O)N3CCCC(C)C3)c(C3(c4ccc(F)cc4)CCCC3)n2)CC1 (centres unmarked) [Example 218, piperidine, 1-[[4-[1-(4-fluorophenyl)cyclopentyl]-2-(4-methyl-1-piperidinyl)-5-pyrimidinyl]carbonyl]-3-methyl-]
334 nM | CC1CCC(Nc2ncc(C(=O)N(C)CCc3ccccc3)c(C3(c4ccc(F)cc4)CCCC3)n2)CC1 (centres unmarked) [Example 219, 5-pyrimidinecarboxamide, 4-[1-(4-fluorophenyl)cyclopentyl]-N-methyl-2-[(4-methylcyclohexyl)amino]-N-(2-phenylethyl)-]
169 nM | CN(CCc1ccccc1)C(=O)c1cnc(N2CCCC2)nc1C1(c2ccc(F)cc2)CCCC1 [Example 220, 5-pyrimidinecarboxamide, 4-[1-(4-fluorophenyl)cyclopentyl]-N-methyl-N-(2-phenylethyl)-2-(1-pyrrolidinyl)-]
356 nM | CC1CCCN(c2ncc(C(=O)N(C)CCc3ccccc3)c(C3(c4ccc(F)cc4)CCCC3)n2)C1 (centres unmarked) [Example 221, 5-pyrimidinecarboxamide, 4-[1-(4-fluorophenyl)cyclopentyl]-N-methyl-2-(3-methyl-1-piperidinyl)-N-(2-phenylethyl)-]
273 nM | CC1CCN(c2ncc(C(=O)N(C)CCc3ccccc3)c(C3(c4ccc(F)cc4)CCCC3)n2)CC1 [Example 222, 5-pyrimidinecarboxamide, 4-[1-(4-fluorophenyl)cyclopentyl]-N-methyl-2-(4-methyl-1-piperidinyl)-N-(2-phenylethyl)-]
675 nM | CCC(C)Nc1ncc(C(=O)N(C)CCc2ccccc2)c(C2(c3ccc(F)cc3)CCCC2)n1 (centres unmarked) [Example 223, 5-pyrimidinecarboxamide, 4-[1-(4-fluorophenyl)cyclopentyl]-N-methyl-2-[(1-methylpropyl)amino]-N-(2-phenylethyl)-]
452 nM | CCN(C)C(=O)c1cnc(NC2CCC(C)CC2)nc1C1(c2ccc(F)cc2)CCCC1 (centres unmarked) [Example 225, 5-pyrimidinecarboxamide, N-ethyl-4-[1-(4-fluorophenyl)cyclopentyl]-N-methyl-2-[(4-methylcyclohexyl)amino]-]
505 nM | CCN(C)C(=O)c1cnc(N2CCCC(C)C2)nc1C1(c2ccc(F)cc2)CCCC1 (centres unmarked) [Example 226, 5-pyrimidinecarboxamide, N-ethyl-4-[1-(4-fluorophenyl)cyclopentyl]-N-methyl-2-(3-methyl-1-piperidinyl)-]
882 nM | CCN(C)C(=O)c1cnc(N2CCC(C)CC2)nc1C1(c2ccc(F)cc2)CCCC1 [Example 227, 5-pyrimidinecarboxamide, N-ethyl-4-[1-(4-fluorophenyl)cyclopentyl]-N-methyl-2-(4-methyl-1-piperidinyl)-]
637 nM | CCN(Cc1ccccc1)C(=O)c1cnc(NC2CCC(C)CC2)nc1C1(c2ccc(F)cc2)CCCC1 (centres unmarked) [Example 228, 5-pyrimidinecarboxamide, N-ethyl-4-[1-(4-fluorophenyl)cyclopentyl]-2-[(4-methylcyclohexyl)amino]-N-(phenylmethyl)-]
369 nM | CCN(Cc1ccccc1)C(=O)c1cnc(N2CCCC(C)C2)nc1C1(c2ccc(F)cc2)CCCC1 (centres unmarked) [Example 229, 5-pyrimidinecarboxamide, N-ethyl-4-[1-(4-fluorophenyl)cyclopentyl]-2-(3-methyl-1-piperidinyl)-N-(phenylmethyl)-]
168 nM | CCN(Cc1ccccc1)C(=O)c1cnc(N2CCC(C)CC2)nc1C1(c2ccc(F)cc2)CCCC1 [Example 230, 5-pyrimidinecarboxamide, N-ethyl-4-[1-(4-fluorophenyl)cyclopentyl]-2-(4-methyl-1-piperidinyl)-N-(phenylmethyl)-]
786 nM | CCC(C)Nc1ncc(C(=O)N(CC)Cc2ccccc2)c(C2(c3ccc(F)cc3)CCCC2)n1 (centres unmarked) [Example 231, 5-pyrimidinecarboxamide, N-ethyl-4-[1-(4-fluorophenyl)cyclopentyl]-2-[(1-methylpropyl)amino]-N-(phenylmethyl)-]

same assay, conditions: hQ23 cells, thallium flux assay

EC50 | SMILES
460 nM | CCN(Cc1ccccc1)C(=O)c1cnc(NC2CCCC2)nc1C1(c2ccc(F)cc2)CCCC1 [Example 232, 5-pyrimidinecarboxamide, 2-(cyclopentylamino)-N-ethyl-4-[1-(4-fluorophenyl)cyclopentyl]-N-(phenylmethyl)-]
436 nM | O=C(NCc1ccc2c(c1)OCO2)c1cnc(NC2CC2)nc1C1(c2ccc(F)cc2)CCCC1 [Example 233, 5-pyrimidinecarboxamide, N-(1,3-benzodioxol-5-ylmethyl)-2-(cyclopropylamino)-4-[1-(4-fluorophenyl)cyclopentyl]-]
235 nM | CC1CCC(Nc2ncc(C(=O)NCc3ccc4c(c3)OCO4)c(C3(c4ccc(F)cc4)CCCC3)n2)CC1 (centres unmarked) [Example 234, 5-pyrimidinecarboxamide, N-(1,3-benzodioxol-5-ylmethyl)-4-[1-(4-fluorophenyl)cyclopentyl]-2-[(4-methylcyclohexyl)amino]-]
214 nM | O=C(NCc1ccc2c(c1)OCO2)c1cnc(N2CCCC2)nc1C1(c2ccc(F)cc2)CCCC1 [Example 235, 5-pyrimidinecarboxamide, N-(1,3-benzodioxol-5-ylmethyl)-4-[1-(4-fluorophenyl)cyclopentyl]-2-(1-pyrrolidinyl)-]
39 nM | CC1CCCN(c2ncc(C(=O)NCc3ccc4c(c3)OCO4)c(C3(c4ccc(F)cc4)CCCC3)n2)C1 (centres unmarked) [Example 236, 5-pyrimidinecarboxamide, N-(1,3-benzodioxol-5-ylmethyl)-4-[1-(4-fluorophenyl)cyclopentyl]-2-(3-methyl-1-piperidinyl)-]
540 nM | CC1CCN(c2ncc(C(=O)NCc3ccc4c(c3)OCO4)c(C3(c4ccc(F)cc4)CCCC3)n2)CC1 [Example 237, 5-pyrimidinecarboxamide, N-(1,3-benzodioxol-5-ylmethyl)-4-[1-(4-fluorophenyl)cyclopentyl]-2-(4-methyl-1-piperidinyl)-]
344 nM | CCC(C)Nc1ncc(C(=O)NCc2ccc3c(c2)OCO3)c(C2(c3ccc(F)cc3)CCCC2)n1 (centres unmarked) [Example 238, 5-pyrimidinecarboxamide, N-(1,3-benzodioxol-5-ylmethyl)-4-[1-(4-fluorophenyl)cyclopentyl]-2-[(1-methylpropyl)amino]-]
792 nM | CN(C)CCNc1ncc(C(=O)NCc2ccc3c(c2)OCO3)c(C2(c3ccc(F)cc3)CCCC2)n1 [Example 239, 5-pyrimidinecarboxamide, N-(1,3-benzodioxol-5-ylmethyl)-2-[[2-(dimethylamino)ethyl]amino]-4-[1-(4-fluorophenyl)cyclopentyl]-]
507 nM | CC(NC(=O)c1cnc(NC2CC2)nc1C1(c2ccc(F)cc2)CCCC1)c1cccc2ccccc12 (centres unmarked) [Example 240, 5-pyrimidinecarboxamide, 2-(cyclopropylamino)-4-[1-(4-fluorophenyl)cyclopentyl]-N-[1-(1-naphthalenyl)ethyl]-]
10 nM | CC1CCC(Nc2ncc(C(=O)NC(C)c3cccc4ccccc34)c(C3(c4ccc(F)cc4)CCCC3)n2)CC1 (centres unmarked) [Example 241, 5-pyrimidinecarboxamide, 4-[1-(4-fluorophenyl)cyclopentyl]-2-[(4-methylcyclohexyl)amino]-N-[1-(1-naphthalenyl)ethyl]-]

Source: patent US7091202B2, “4-arylspirocycloalkyl-2-aminopyrimidine carboxamide KCNQ potassium channel modulators” (Bristol-Myers Squibb Company, priority 2004, dated 2006)
